Test results as given in publication PMC3691018 (Bioorganic & medicinal chemistry letters, 2013).

Assays:
[1] = target: Bacillus anthracis DNA replicative helicase (Bacillus anthracis, UniProt A0A0J1HKT7); assay: biochemical; type: biochemical
HeLa = type: cell-based

| Compound | Activity vs B. anthracis helicase (in words) [1] | Selectivity index (SI = CC50/IC50) (HeLa) | IC50 [1] [µM] |
| --- | --- | --- | --- |
| COc1cccc(C(=O)Nc2nc3ccc4nc(NC5CCCCC5)sc4c3s2)c1 [Compound 53] | significantly reduced activity |  |  |
| COc1cccc(C(=O)Nc2nc3ccc4nc(NC(C)C)sc4c3s2)c1 [Compound 51] | significantly reduced activity |  |  |
| CNc1nc2ccc3nc(NC(=O)c4cc(OC)c(OC)c(OC)c4)sc3c2s1 [Compound 59] |  | greater than 500 |  |
| COc1cc(CNc2nc3ccc4nc(SC)sc4c3s2)cc(OC)c1OC [Compound 64] | lost activities |  | > 100 |
| COc1cccc(C(=O)Nc2nc3ccc4nc(NCC(C)C)sc4c3s2)c1 [Compound 52] | modest inhibition |  |  |
| COc1cc(/C=N/c2nc3ccc4nc(SC)sc4c3s2)cc(OC)c1OC [Compound 65] | lost activities |  | > 100 |
| COc1cccc(C(=O)Nc2nc3ccc4nc(NCc5ccccc5)sc4c3s2)c1 [Compound 54] | significantly reduced activity |  |  |
